Experiments:
recombinant human MMP-13 = target: T1, recombinant human MMP-13 (Homo sapiens, UniProt P45452); assay: Assay of MMP-13 inhibiting activity (fluorogenic peptide substrate); format: biochemical; conditions: 37° C., 2 hours
T1 construct: made in house; host or cells: baculovirus (pBlueBac4 / Bac-N-Blue; virus made in Sf9), expressed in High-Five insect cells; culture supernatant used
How it was run: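 Baculovirus-expressed human MMP-13 (High-Five cell supernatant) in pH 7.5 Tris buffer with 200 mM NaCl, 20 mM CaCl2, 0.1% Brij 35, 1 mM 2-mercaptoethanol; reaction started with 40 μM (stock) MOCAc-PLGL-A2pr(DNP)-AR-NH2, 2 h at 37 °C, stopped at pH 3.0. Fluorescence 330/405 nm; IC50 versus no-compound control.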

nasal cartilage = assay: Assay of cartilage collagen degradation inhibiting activity (IL-1β-stimulated nasal cartilage pieces, hydroxyproline release); format: cell-based, cow; conditions: 504 h; at 1 μM of compound; human recombinant IL-1β; incubation 3 weeks
Procedure: A nasal cartilage was isolated aseptically from a sacrificed cow, and preincubated in a Dulbecco's modified eagle medium containing 5% heat-inactivated fetal bovine serum, 100 units/ml of penicillin G and 100 units/ml of streptomycin at 37° C. under 5% CO2 and 95% air for 3 days. After completing the preincubation, a cartilage piece weighing about 10 mg was prepared and placed in 100 μl of a medium supplemented with a human recombinant interleukin-1β (IL-1β: *ZENZYME*) and a test compound. After incubating for 3 weeks in total during which the culture medium was replaced on the weekly basis, the total amount of hydroxyproline liberated into the culture medium and the amount of hydroxyproline remaining in the cartilage piece were determined and % collagen degradation was calculated. The collagen degradation inhibiting activity of a test compound was determined according to the following equation. Collagen degradation inhibiting activity (%)=100×(Ci−Cs)/(Ci−Cc) Equation: wherein Cc is % collagen degradation in the absence of both of IL-1β and compound, Ci is % collagen degradation in the presence of IL-1β, and Cs is a % collagen degradation in the presence of both of IL-1β and a test compound.

## O=C1C[C@@H](S)[C@H](COCc2ccccc2)N1Cc1ccc(Oc2ccccc2)cc1 (relative stereo) [Example 39, Trans-5-benzyloxymethyl-4-mercapto-1-(4-phenoxybenzyl)pyrrolidin-2-one]
Recombinant human MMP-13; Table 5
  IC50: 9 nM
Nasal cartilage
  inhibition at 1 µM: 39%

## CC(=O)S[C@@H]1CC(=O)N(Cc2ccc(Oc3ccccc3)cc2)C1 [Example 24, (R)-4-Acetylthio-1-(4-phenoxybenzyl)pyrrolidin-2-one]
Recombinant human MMP-13; Table 3
  IC50: 9 nM
Nasal cartilage
  inhibition at 1 µM: 91%

## O=C1C[C@@H](S)CN1Cc1ccc(Oc2ccccc2)cc1 [Example 25, (R)-4-Mercapto-1-(4-phenoxybenzyl)pyrrolidin-2-one]
Recombinant human MMP-13; Table 3
  IC50: 3 nM
Nasal cartilage
  inhibition at 1 µM: 88%

## O=C1C[C@@H](S)CN1Cc1ccc(Oc2ccc(Cl)cc2)cc1 [Example 126, (R)-4-Mercapto-1-[4-(4-chlorophenoxy)benzyl]pyrrolidin-2-one]
Recombinant human MMP-13; Table 9
  IC50: 1.7 nM
Nasal cartilage
  inhibition at 1 µM: 70%

## CC(=O)SC1CC(=O)N(Cc2ccc(Oc3ccccn3)cc2)C1 (stereo not drawn) [Example 156, 4-Acetylthio-1-[4-(2′-pyridyloxy)benzyl]pyrrolidin-2-one]
Recombinant human MMP-13; Table 11
  IC50: 700 nM
Nasal cartilage
  inhibition at 1 µM: 84%

## CC(=O)SC1CC(=O)N(CC2CCN(C(=O)c3ccccc3)CC2)C1 (stereo not drawn) [Example 193, 4-Acetylthio-1-[(1-benzoyl-4-piperidyl)methyl]pyrrolidin-2-one]
Recombinant human MMP-13; Table 11
  IC50: > 10000 nM

## CC(=O)SC1CN(Cc2ccc(Oc3ccccc3)cc2)C(=O)C1C (stereo not drawn) [Example 194, trans-4-Acetylthio-3-methyl-1-(4-phenoxybenzyl)pyrrolidin-2-one]
Recombinant human MMP-13; Table 6
  IC50: 30 nM

## CC1C(=O)N(Cc2ccc(Oc3ccccc3)cc2)CC1S (stereo not drawn) [Example 195, trans-4-Mercapto-3-methyl-1-(4-phenoxybenzyl)pyrrolidin-2-one]
Recombinant human MMP-13; Table 6
  IC50: 6 nM

## CC(=O)SC1CC(=O)N(C(=O)c2ccc(Oc3ccccc3)cc2)C1 (stereo not drawn) [Example 196, S-[5-Oxo-1-(4-phenoxybenzoyl)-3-pyrrolidinyl]ethanethioate]
Recombinant human MMP-13; Table 10
  IC50: > 10000 nM

## CC(=O)S[C@@H]1CC(=O)N(Cc2ccc(Oc3ccc4c(c3)OCO4)cc2)C1 [Example 198, S-{(3R)-1-{4-(1,3-benzodioxol-5-yloxy)benzyl]-5-oxopyrrolidinyl}ethanethioate]
Recombinant human MMP-13; Table 11
  IC50: 12 nM

## CC(=O)S[C@@H]1CC(=O)N(Cc2ccc(Oc3ccc(Br)cc3)cc2)C1 [Example 199, (R)-4-Acetylthio-1-[4-(4′-bromophenoxy)benzyl]pyrrolidin-2-one]
Recombinant human MMP-13; Table 9
  IC50: 6 nM

## O=C1C[C@@H](S)CN1Cc1ccc(Oc2ccc(Br)cc2)cc1 [Example 200, (R)-4-Mercapto-1-[4-(4′-bromophenoxy)benzyl]pyrrolidin-2-one]
Recombinant human MMP-13; Table 9
  IC50: 2 nM

## CC(=O)SC1CC(=O)N(Cc2ccc3oc4ccccc4c3c2)C1 (stereo not drawn) [Example 201, 4-Acetylthio-1-(2-dibenzofuranmethyl)pyrrolidin-2-one]
Recombinant human MMP-13; Table 11
  IC50: 300 nM

## O=C1CC(S)CN1Cc1ccc2oc3ccccc3c2c1 (stereo not drawn) [Example 202, 4-Mercapto-1-(2-dibenzofuranmethyl)pyrrolidin-2-one]
Recombinant human MMP-13; Table 11
  IC50: 100 nM

## CC(=O)SC1CC(=O)N(Cc2ccc(N(c3ccccc3)S(=O)(=O)c3ccc(C)cc3)cc2)C1 (stereo not drawn) [Example 203, 4-Acetylthio-1-[4-(N-phenyl-N-p-toluenesulfonyl)aminobenzyl]pyrrolidin-2-one]
Recombinant human MMP-13; Table 11
  IC50: > 10000 nM

## Cc1ccc(S(=O)(=O)N(c2ccccc2)c2ccc(CN3CC(S)CC3=O)cc2)cc1 (stereo not drawn) [Example 204, 4-Mercapto-1-[4-(N-phenyl-N-p-toluenesulfonylamino)benzyl]pyrrolidin-2-one]
Recombinant human MMP-13; Table 11
  IC50: 3900 nM

## (R)-4-Acethylthio-1-[4-(4-chlorophenoxy)benzyl]pyrrolidin-2-one [Example 125]
Recombinant human MMP-13; Table 9
  IC50: 6.1 nM

## Ethyl 3-{[(3R)-5-oxo-1-(4-phenoxybenzyl)-2-pyrrolidinyl]disulfanyl}propanoate [Example 84]
Recombinant human MMP-13; Table 3
  IC50: 32 nM

## S-[2-Oxo-1-(4-phenoxybenzyl)-4-piperidinyl]ethanethioate [Example 110]
Recombinant human MMP-13; Table 12
  IC50: 250 nM

Reference: patent publication US6953789B2, “Thiol compounds, their production and use” (Takeda Chemical Industries, Ltd., priority 1998, dated 2005)
